Test results from ChEMBL document CHEMBL3603787, “Antiproliferative and tumor inhibitory studies of 2,3 disubstituted 4-thiazolidinone derivatives” (Bioorg Med Chem Lett, 2015).
The source made the active and inactive calls. The rule behind the calls is not given here.

Tests used:
REH [1] = assay: Antiproliferative activity against human REH cells after 48 hrs by MTT assay; format: functional, cell-based
[2] = Antiproliferative activity against human NALM6 cells after 48 hrs by MTT assay; format: functional, cell-based; details: NALM-6, 48 h
REH [3] = assay: Cell cycle arrest in human REH cells assessed as accumulation at sub-G1 phase after 48 hrs using propidium iodide staining; format: functional, cell-based
REH [4] = assay: Induction of apoptosis in human REH cells assessed as decrease in mitochondrial membrane potential using green fluorescence of JC-1 dye after 48 hrs; format: functional, cell-based
Ehrlich [5] = assay: Antitumor activity against mouse EAC cells allografted in mouse assessed as reduction of tumor volume at 25 mg/kg measured up to 14 days; format: functional, organism-based
[6] = Antiproliferative activity against human HEK293T cells after 48 hrs by MTT assay; format: cell-based; details: HEK-293T
Ehrlich [7] = assay: Antitumor activity against mouse EAC cells allografted in mouse assessed as necrosis and innumerable number of apoptotic cells at 25 mg/kg measured up to 14 days; format: functional, organism-based
Mus musculus [8] = assay: Toxicity in mouse EAC allografted mouse assessed as effect on morphology and cellular construction of organs at 25 mg/kg; format: organism-based; details: in vivo
Mus musculus [9] = assay: Toxicity in mouse EAC allografted mouse assessed as effect on organs function at 25 mg/kg; format: organism-based; details: in vivo

SMILES | IC50 (REH [1]) [µM] | IC50 [2] [µM] | further results
COc1ccc(N2C(=O)CSC2c2ccc(O)cc2)cc1OC (configuration not stated) | 69.4 | > 100 | 
O=C1CSC2(CCCC2)N1c1ncccn1 | > 100 | > 100 | 
CC(C)(C)OC(=O)N1CCC(C2SCC(=O)N2c2ccc(N3CCN(C(=O)OC(C)(C)C)CC3)cn2)CC1 (configuration not stated) | > 100 | 82.9 | 
Cc1ccccc1N1C(=O)CSC1c1ccc(C(F)(F)F)cc1 (configuration not stated) | 29.6 | 42.6 | 
COc1cccc(N2C(=O)CSC2c2ccc(F)cc2)c1 (configuration not stated) | > 100 | 49.8 | 
CN(C)c1ccc(C2SCC(=O)N2c2ccc(Br)cc2)cc1 (configuration not stated) | 11.9 | 13.2 | Activity (REH [3]): Dose-dependent effect; Activity (REH [4]): Dose-dependent effect; Activity (Ehrlich [5]): Active; IC50 [6]: > 80 µM; Activity (Ehrlich [7]): Active; Activity (Mus musculus [8]): Non-toxic; Activity (Mus musculus [9]): Non-toxic
COc1ccc(N2C(=O)CSC2c2ccccc2[N+](=O)[O-])cc1 (configuration not stated) | > 100 | 93.4 | 
CC1(c2ccccc2)SCC(=O)N1c1cc(Cl)cc(Cl)c1 (configuration not stated) | > 100 | > 100 | 
COc1ccc(N2C(=O)CSC2c2cccnc2)cc1OC (configuration not stated) | > 100 | > 100 | 
O=C1CSC2(CCCCC2)N1c1ccc(OC(F)F)cc1 | 41.4 | > 100 | 
